Assay results from patent US10913753B2, “Thienopyridine carboxamides as ubiquitin-specific protease inhibitors” (FORMA Therapeutics, Inc., priority 2016, dated 2021).
pIC50: −log10 of the molar value.

What was measured:
USP25 = USP25 (Homo sapiens (Human), UniProt Q9UHP3); assay: Ubiquitin-Rhodamine 110 Assay for USP25 Activity; format: biochemical
Procedure, shortened: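 USP25-His6 (75 pM) preincubated 30 min with compound (25 μM to 1.3 nM, 10-point 3-fold), then Ub-Rh110 added; 45 min at room temperature in pH 8.0 Tris buffer with BME, BGG, Triton X-100, stopped with 10 mM citric acid. Fluorescence 485/535 nm; % inhibition vs no-enzyme and DMSO controls, IC50 by 4-parameter logistic fit.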

USP28 = USP28 (Homo sapiens (Human), UniProt Q96RU2); assay: Ubiquitin-Rhodamine 110 Assay for USP28 Activity; format: biochemical
Chain of USP28 (Q96RU2 whole entry): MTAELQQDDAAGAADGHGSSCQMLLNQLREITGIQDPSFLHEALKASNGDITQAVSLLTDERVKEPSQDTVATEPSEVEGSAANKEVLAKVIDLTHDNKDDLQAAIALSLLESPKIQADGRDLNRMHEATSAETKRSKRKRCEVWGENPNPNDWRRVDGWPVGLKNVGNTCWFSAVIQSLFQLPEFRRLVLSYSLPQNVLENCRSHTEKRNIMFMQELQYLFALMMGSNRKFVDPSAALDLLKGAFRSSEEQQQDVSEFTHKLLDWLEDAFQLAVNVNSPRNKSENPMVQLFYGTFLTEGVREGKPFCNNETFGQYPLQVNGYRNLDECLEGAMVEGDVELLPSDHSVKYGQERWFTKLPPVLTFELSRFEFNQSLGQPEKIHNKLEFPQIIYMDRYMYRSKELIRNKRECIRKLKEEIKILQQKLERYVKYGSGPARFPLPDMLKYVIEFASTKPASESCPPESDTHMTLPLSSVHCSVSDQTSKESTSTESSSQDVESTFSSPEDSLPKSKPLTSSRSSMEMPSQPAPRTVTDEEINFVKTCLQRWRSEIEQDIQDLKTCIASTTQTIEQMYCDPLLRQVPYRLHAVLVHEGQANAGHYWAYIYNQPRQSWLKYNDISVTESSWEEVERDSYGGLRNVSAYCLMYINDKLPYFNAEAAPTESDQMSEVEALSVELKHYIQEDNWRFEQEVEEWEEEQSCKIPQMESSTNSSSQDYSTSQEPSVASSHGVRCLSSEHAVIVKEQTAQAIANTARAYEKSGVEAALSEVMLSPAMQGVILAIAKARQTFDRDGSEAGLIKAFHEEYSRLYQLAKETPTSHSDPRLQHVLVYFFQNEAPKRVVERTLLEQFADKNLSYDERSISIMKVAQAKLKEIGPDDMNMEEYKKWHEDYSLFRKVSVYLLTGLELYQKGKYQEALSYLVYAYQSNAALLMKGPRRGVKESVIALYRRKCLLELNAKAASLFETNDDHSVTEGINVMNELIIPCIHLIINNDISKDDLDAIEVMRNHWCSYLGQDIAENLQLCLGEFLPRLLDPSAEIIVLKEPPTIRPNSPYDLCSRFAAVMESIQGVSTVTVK
Procedure, shortened: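 Single-point screen at 10 μM, 90 min; follow-up dose-response (25 μM top, 3-fold) with 75 pM USP28 (1-1077)-TEV-6*His, 30 min compound preincubation, Ub-Rh110 substrate for 20 min at room temperature, citric acid stop. Buffer pH 8.0 Tris; fluorescence 485/535 nm; IC50 by 4-parameter logistic fit of % inhibition.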

Chain of USP25 (Q9UHP3 whole entry): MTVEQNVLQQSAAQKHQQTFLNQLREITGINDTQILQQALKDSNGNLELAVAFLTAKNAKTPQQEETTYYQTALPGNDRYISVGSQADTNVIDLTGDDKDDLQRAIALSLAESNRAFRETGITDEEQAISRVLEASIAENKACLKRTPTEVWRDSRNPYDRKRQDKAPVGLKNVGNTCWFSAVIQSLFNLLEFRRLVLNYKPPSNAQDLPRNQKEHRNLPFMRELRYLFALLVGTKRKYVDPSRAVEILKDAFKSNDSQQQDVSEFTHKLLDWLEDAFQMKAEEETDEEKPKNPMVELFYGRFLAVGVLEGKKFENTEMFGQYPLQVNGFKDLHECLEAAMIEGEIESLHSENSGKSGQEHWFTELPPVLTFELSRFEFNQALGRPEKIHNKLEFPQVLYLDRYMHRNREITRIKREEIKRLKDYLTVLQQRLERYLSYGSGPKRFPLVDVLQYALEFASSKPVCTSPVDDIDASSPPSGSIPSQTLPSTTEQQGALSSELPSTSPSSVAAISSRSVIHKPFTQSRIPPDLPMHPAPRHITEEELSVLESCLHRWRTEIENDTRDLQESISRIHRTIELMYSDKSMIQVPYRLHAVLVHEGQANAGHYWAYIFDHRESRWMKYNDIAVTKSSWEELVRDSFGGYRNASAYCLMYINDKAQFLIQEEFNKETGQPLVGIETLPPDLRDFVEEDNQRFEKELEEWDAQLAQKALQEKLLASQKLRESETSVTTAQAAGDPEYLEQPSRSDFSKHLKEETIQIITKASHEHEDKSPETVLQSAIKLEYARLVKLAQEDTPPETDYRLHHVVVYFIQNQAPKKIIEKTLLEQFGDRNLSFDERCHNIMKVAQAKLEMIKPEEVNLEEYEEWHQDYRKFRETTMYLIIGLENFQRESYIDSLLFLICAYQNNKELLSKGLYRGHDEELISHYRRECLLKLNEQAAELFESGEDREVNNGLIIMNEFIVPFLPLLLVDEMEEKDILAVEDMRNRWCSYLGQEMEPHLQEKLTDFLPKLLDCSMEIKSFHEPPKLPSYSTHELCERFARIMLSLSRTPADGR

Compound | pIC50 (USP25) | pIC50 (USP28)
Cc1nc2sc(C(=O)NCCc3ccc(N4CC5CCC(C4)N5)c(C#N)c3)c(N)c2cc1F [Compound I-71] | 5.70 to 6.70 | 5.70 to 6.70
Cc1nc2sc(C(=O)NCCc3cc(F)c(N4CC5CCC(C4)N5)cc3F)c(N)c2cc1F [Compound I-72] | 5.70 to 6.70 | > 6.70
Cc1ccc2c(N)c(C(=O)NCCc3ccc(C4CCNCC4)cc3F)sc2n1 [Compound I-170] | 5.70 to 6.70 | > 6.70
Cc1ccc2c(N)c(C(=O)NCCc3ccc(N4CC[C@@H](NC(C)C)C4)cc3)sc2n1 [Compound I-201] | 5.70 to 6.70 | 5.70 to 6.70
Cc1cc(C(F)(F)F)c2c(N)c(C(=O)NCCc3ccc(N4CCNCC4)cc3)sc2n1 [Compound I-204] | > 6.70 | 5.70 to 6.70
Cc1ccc2c(N)c(C(=O)NCCc3ccc(C4CCNCC4)c(Cl)c3)sc2n1 [Compound I-205] | 5.70 to 6.70 | > 6.70
CCc1nc2sc(C(=O)NCCc3ccc(N4CCNCC4)cc3)c(N)c2cc1F [Compound I-206] | > 6.70 | > 6.70
Cc1ccc2c(N)c(C(=O)NCCc3cc(F)c(N4CCN[C@@H](C)C4)cc3F)sc2n1 [Compound I-210] | 5.00 to 5.70 | 5.70 to 6.70
Cc1ccc2c(N)c(C(=O)NCCc3ccc(N4CCNCC4)cc3)sc2n1 [Example I-1, 3-Amino-6-methyl-N-(4-(piperazin-1-yl)phenethyl)thieno[2,3-b]pyridine-2-carboxamide] | 5.70 to 6.70 | 5.70 to 6.70
Cc1ccc2c(N)c(C(=O)NCCc3ccc(N4CCNCC4)c(F)c3)sc2n1 [Example I-10, 3-Amino-N-(3-fluoro-4-(piperazin-1-yl)phenethyl)-6-methylthieno[2,3-b]pyridine-2-carboxamide] | 5.70 to 6.70 | 5.00 to 5.70
Cc1ccc2c(N)c(C(=O)NCCc3cc(F)c(N4CCNCC4)cc3F)sc2n1 [Example I-11, 3-Amino-N-(2,5-difluoro-4-(piperazin-1-yl)phenethyl)-6-methylthieno[2,3-b]pyridine-2-carboxamide] | 5.70 to 6.70 | 5.70 to 6.70
Cc1ccc2c(N)c(C(=O)NCCc3ccc(N4CCNCC4)c(OC(F)F)c3)sc2n1 [Example I-73, 3-Amino-N-(3-(difluoromethoxy)-4-(piperazin-1-yl)phenethyl)-6-methylthieno[2,3-b]pyridine-2-carboxamide] | 5.70 to 6.70 | 5.70 to 6.70
Cc1ccc2c(N)c(C(=O)NCCc3ccc(N4CCN(C5CCC5)CC4)cc3)sc2n1 [Example I-75] | 5.70 to 6.70 | 5.70 to 6.70
Cc1ccc2c(N)c(C(=O)NCCc3ccc(N4CCNCC4)cc3Cl)sc2n1 [Example I-76] | 5.70 to 6.70 | > 6.70
Cc1ccc2c(N)c(C(=O)NCCc3ccc(N4CCNCC4)c(Cl)c3)sc2n1 [Example I-77] | 5.70 to 6.70 | 5.70 to 6.70
CCc1cc(CCNC(=O)c2sc3nc(C)ccc3c2N)ccc1N1CCNCC1 [Example I-78] | 5.70 to 6.70 | > 6.70
CN[C@H]1CCN(c2ccc(CCNC(=O)c3sc4nc(C)ccc4c3N)cc2Cl)C1 [Example I-79] | 5.70 to 6.70 | 5.70 to 6.70
Cc1ccc2c(N)c(C(=O)NCCc3ccc(N4CCNCC4)cc3C3CC3)sc2n1 [Example I-81] | > 6.70 | > 6.70
Cc1ccc2c(N)c(C(=O)NCCc3ccc(N4CCNCC4)cc3-c3ccccc3)sc2n1 [Example I-82] | > 6.70 | > 6.70
CCOc1cc(CCNC(=O)c2sc3nc(C)ccc3c2N)ccc1N1CCNCC1 [Example I-83] | 5.70 to 6.70 | 5.70 to 6.70
Cc1ccc2c(N)c(C(=O)NCCc3ccc(N4CCNCC4)c(F)c3F)sc2n1 [Example I-84] | 5.70 to 6.70 | 5.70 to 6.70
CN[C@@H]1CCN(c2ccc(CCNC(=O)c3sc4nc(C)ccc4c3N)cc2Cl)C1 [Example I-85] | 5.70 to 6.70 | 5.70 to 6.70
Cc1ccc2c(N)c(C(=O)NCCc3ccc(N4CCN[C@H](CO)C4)cc3)sc2n1 [Example I-86] | 5.70 to 6.70 | 5.70 to 6.70
Cc1ccc2c(N)c(C(=O)NCCc3ccc(N4CCN[C@@H](CO)C4)cc3)sc2n1 [Example I-87] | 5.70 to 6.70 | > 6.70
